Experimental data published in ChEMBL document CHEMBL4808209 (J Med Chem, 2021).
In brackets after ≈: the same amount, converted by molar mass.

What was measured:
[1] = Clearance in Sprague-Dawley rat at 2 mg/kg, po or 1 mg/kg, iv administered as cassette dose measured after 24 hrs relative to hepatic blood flow; type: ADME, organism-based; details: in vivo
[2] = biological target: 5-hydroxytryptamine receptor 6 (Homo sapiens, UniProt P50406); experiment: Inhibition of human 5HT6 receptor at 0.1 to 1 uM; details: dose 0.1-1 µM
[3] = Oral bioavailability in cynomolgus monkey at 2 mg/kg administered as cassette dose measured after 24 hrs; type: ADME, organism-based, Macaca fascicularis; details: in vivo
[4] = Inhibition of calcium activated potassium channel (unknown origin) at 0.1 to 1 uM; details: human, dose 0.1-1 µM
Adenosine receptor A1 = Adenosine receptor A1 (Homo sapiens, UniProt P30542); experiment: Inhibition of adenosine A1 receptor (unknown origin) at 0.1 to 1 uM; details: dose 0.1-1 µM
[5] = biological target: 5-hydroxytryptamine receptor 1D (Homo sapiens, UniProt P28221); experiment: Inhibition of 5HT1D receptor (unknown origin) at 0.1 to 1 uM; details: dose 0.1-1 µM
[6] = biological target: Protein kinase C alpha type (Homo sapiens, UniProt P17252); experiment: Inhibition of human PKCa at 0.1 to 1 uM; details: dose 0.1-1 µM
[7] = Solubility of the compound in FaSSIF by HPLC analysis; type: physicochemical
[8] = AUC in cynomolgus monkey at 2 mg/kg, po or 0.5 mg/kg, iv administered as cassette dose measured after 24 hrs; type: ADME, organism-based, Macaca fascicularis; design: dose 2 mg/kg, time 24 hrs; details: in vivo
[9] = biological target: Cysteinyl leukotriene receptor 1 (Homo sapiens, UniProt Q9Y271); experiment: Inhibition of LTD4 (unknown origin) at 0.1 to 1 uM; details: dose 0.1-1 µM
[10] = biological target: Muscarinic acetylcholine receptor M4 (Homo sapiens, UniProt P08173); experiment: Inhibition of human muscarinic M4 receptor at 0.1 to 1 uM; details: dose 0.1-1 µM
[11] = biological target: Voltage-gated inwardly rectifying potassium channel KCNH2 (Homo sapiens, UniProt Q12809); experiment: Inhibition of human ERG at 0.1 to 1 uM; details: dose 0.1-1 µM
Chain of Voltage-gated inwardly rectifying potassium channel KCNH2 (Q12809 whole entry): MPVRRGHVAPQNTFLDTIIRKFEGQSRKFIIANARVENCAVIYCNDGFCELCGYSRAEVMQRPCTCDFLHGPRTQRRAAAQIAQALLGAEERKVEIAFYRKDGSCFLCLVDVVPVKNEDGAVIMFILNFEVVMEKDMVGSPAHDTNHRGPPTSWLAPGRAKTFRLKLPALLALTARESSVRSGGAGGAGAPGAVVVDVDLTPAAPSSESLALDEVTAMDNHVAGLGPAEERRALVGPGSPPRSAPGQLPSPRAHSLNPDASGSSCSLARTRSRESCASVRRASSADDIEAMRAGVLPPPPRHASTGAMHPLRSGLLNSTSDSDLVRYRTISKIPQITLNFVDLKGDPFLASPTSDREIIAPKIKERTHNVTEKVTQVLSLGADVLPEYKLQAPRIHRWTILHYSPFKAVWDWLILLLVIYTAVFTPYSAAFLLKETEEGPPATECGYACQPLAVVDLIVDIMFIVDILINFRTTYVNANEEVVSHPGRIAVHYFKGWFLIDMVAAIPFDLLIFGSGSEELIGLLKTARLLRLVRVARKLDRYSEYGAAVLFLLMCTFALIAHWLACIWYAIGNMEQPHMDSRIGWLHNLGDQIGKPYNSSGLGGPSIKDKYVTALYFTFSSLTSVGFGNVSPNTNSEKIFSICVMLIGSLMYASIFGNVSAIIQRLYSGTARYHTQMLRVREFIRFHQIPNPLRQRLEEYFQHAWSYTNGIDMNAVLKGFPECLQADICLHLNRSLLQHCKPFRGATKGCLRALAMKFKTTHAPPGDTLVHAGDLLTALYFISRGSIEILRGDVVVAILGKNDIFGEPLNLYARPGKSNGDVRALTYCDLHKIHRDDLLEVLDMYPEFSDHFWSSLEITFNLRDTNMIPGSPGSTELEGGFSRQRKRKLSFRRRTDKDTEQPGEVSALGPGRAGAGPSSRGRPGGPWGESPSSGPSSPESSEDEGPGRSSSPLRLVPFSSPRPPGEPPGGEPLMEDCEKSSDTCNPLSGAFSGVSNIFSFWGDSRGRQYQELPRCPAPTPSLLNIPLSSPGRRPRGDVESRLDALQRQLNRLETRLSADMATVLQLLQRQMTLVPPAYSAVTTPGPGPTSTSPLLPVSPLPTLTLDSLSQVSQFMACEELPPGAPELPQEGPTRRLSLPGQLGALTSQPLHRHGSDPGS

Chain of Muscarinic acetylcholine receptor M4 (P08173 whole entry): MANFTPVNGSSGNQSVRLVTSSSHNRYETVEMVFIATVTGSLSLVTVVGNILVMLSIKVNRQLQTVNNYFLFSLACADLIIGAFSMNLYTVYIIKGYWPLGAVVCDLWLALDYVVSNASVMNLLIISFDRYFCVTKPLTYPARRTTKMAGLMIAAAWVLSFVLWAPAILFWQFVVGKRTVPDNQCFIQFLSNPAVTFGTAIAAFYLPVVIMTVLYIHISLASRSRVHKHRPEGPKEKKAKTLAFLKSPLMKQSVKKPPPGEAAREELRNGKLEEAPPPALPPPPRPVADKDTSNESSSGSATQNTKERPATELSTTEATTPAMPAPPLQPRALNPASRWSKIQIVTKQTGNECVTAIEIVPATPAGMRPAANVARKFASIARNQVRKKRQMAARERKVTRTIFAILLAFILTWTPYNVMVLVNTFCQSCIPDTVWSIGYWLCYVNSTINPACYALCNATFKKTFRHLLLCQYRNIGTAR
Chain of 5-hydroxytryptamine receptor 1D (P28221 whole entry): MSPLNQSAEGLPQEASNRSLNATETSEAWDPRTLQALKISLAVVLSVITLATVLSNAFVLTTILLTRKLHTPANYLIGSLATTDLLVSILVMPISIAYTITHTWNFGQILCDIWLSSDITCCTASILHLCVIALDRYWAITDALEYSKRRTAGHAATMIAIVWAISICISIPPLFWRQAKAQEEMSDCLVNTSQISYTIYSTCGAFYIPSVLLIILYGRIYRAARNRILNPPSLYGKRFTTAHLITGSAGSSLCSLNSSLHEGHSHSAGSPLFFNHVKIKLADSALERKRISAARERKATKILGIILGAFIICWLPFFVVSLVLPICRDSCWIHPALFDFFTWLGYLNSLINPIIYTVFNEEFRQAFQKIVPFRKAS
Chain of Cysteinyl leukotriene receptor 1 (Q9Y271 whole entry): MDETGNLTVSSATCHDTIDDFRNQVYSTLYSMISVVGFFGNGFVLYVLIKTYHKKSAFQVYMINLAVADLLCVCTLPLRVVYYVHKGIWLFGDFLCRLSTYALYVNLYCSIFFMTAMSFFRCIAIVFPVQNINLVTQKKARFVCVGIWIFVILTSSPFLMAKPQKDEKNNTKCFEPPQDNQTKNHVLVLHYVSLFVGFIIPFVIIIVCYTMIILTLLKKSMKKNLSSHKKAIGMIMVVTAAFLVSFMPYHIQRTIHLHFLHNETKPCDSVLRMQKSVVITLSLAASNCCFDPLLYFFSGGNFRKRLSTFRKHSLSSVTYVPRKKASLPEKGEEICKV
Chain of Adenosine receptor A1 (P30542 whole entry): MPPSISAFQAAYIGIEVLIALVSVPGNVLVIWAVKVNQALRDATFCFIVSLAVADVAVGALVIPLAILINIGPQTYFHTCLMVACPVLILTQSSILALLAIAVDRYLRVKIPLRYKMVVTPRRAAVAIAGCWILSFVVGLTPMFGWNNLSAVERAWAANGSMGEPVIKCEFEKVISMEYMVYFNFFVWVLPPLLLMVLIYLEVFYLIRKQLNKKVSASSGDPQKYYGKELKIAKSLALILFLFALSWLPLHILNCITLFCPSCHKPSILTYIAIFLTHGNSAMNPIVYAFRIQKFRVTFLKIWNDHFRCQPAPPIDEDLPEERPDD
Chain of 5-hydroxytryptamine receptor 6 (P50406 whole entry): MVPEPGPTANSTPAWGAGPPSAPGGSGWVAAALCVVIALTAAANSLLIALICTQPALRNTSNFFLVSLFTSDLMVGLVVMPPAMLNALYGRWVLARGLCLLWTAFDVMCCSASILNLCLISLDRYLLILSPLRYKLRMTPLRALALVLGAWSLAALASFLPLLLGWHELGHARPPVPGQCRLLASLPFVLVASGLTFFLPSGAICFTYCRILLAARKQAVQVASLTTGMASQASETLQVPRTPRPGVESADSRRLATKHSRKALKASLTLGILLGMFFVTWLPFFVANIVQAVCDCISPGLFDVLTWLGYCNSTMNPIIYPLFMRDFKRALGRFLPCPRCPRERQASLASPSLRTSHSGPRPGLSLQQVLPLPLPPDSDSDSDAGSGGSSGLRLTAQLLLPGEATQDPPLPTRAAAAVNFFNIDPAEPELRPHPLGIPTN

What does the source list for `CCN1C(=O)N(c2c(F)c(OC)cc(OC)c2F)Cc2cnc3[nH]c(CN4CCOCC4)cc3c21` [PEMIGATINIB]?
CL [1]: 31%; inhibition (INH) [2]: Not Active; bioavailability [3]: 29%; inhibition (INH) [4]: Not Active; inhibition (INH) (Adenosine receptor A1): Not Active; inhibition (INH) [5]: Not Active; inhibition (INH) [6]: Not Active; solubility [7]: 11 µg/mL (≈ 22.6 µM); AUC at 24 h [8]: 6.19 µM·h; inhibition (INH) [9]: Not Active; inhibition (INH) [10]: Not Active; inhibition (INH) [11]: Not Active
